Test results published in publication PMC11086599, “Cyanobacterial α-carboxysome carbonic anhydrase is allosterically regulated by the Rubisco substrate RuBP” (Science Advances, 2024).
Where a chain is given by its changes, count along the chain named.

What was measured:
HnCsoSCA = target: T1, HnCsoSCA (Halothiobacillus neapolitanus, UniProt O85042); settings: labelled compound; 2.7 mM NaH13C18O3, 50 mM EPPS-NaOH, 20 mM MgCl2, pH 7.8, DTNB; no RuBP needed
T1 construct: gene csoS3

CyCsoSCA [1] = target: T2, CyCsoSCA (Cyanobium sp. PCC 7001, UniProt Z9Q2N2GQP4); test: membrane inlet mass spectrometry […]-exchange CA assay; Hill fit; format: biochemical; settings: allosteric activator of bicarbonate dehydration/CO2 hydration; sigmoidal, Hill slope 2.214; 2.7 mM labelled bicarbonate, 50 mM EPPS-NaOH, 20 mM MgCl2, pH 7.8; site near dimer interface (R266, K469, R5)
T2 construct: first 116 residues (disordered N-terminal tail) removed; pHue His-ubiquitin fusion, tag cleaved with USP2; expressed in E. coli; homohexamer (trimer of dimers)
T2 sequence (Z9Q2N2GQP4 117-583): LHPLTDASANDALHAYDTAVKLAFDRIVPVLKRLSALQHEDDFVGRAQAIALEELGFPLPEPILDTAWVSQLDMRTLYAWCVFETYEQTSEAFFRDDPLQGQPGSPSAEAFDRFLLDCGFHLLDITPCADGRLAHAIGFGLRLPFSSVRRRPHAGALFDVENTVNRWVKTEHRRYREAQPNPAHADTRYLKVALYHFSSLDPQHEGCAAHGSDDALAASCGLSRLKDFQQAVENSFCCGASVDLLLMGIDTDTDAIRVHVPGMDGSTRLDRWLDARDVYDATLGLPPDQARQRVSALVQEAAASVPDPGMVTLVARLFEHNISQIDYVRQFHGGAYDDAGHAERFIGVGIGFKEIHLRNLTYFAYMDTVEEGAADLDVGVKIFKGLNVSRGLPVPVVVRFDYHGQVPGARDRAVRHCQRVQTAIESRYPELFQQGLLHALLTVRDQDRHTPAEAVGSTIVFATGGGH

CyCsoSCA [2] = target: T3, CyCsoSCA (Cyanobium sp. PCC 7001, UniProt Z9Q2N2GQP4, T477A); test: membrane inlet mass spectrometry […]-exchange CA assay; format: biochemical; settings: 100 μM RuBP; allosteric activator; same buffer
T3 construct: first 116 residues (disordered N-terminal tail) removed; pHue His-ubiquitin fusion, tag cleaved with USP2; expressed in E. coli; homohexamer (trimer of dimers)
T3 sequence (Z9Q2N2GQP4 117-583 T477A): T2 sequence (Z9Q2N2GQP4 117-583) with T361A

CyCsoSCA [3] = target: T4, CyCsoSCA (Cyanobium sp. PCC 7001, UniProt Z9Q2N2GQP4, K469D); test: as above; format: biochemical; settings: 100 μM RuBP; allosteric activator; same buffer
T4 construct: first 116 residues (disordered N-terminal tail) removed; pHue His-ubiquitin fusion, tag cleaved with USP2; expressed in E. coli; homohexamer (trimer of dimers)
T4 sequence (Z9Q2N2GQP4 117-583 K469D): T2 sequence (Z9Q2N2GQP4 117-583) with K353D

CyCsoSCA [4] = target: T5, CyCsoSCA (Cyanobium sp. PCC 7001, UniProt Z9Q2N2GQP4, H472Q); test: as above; format: biochemical; settings: 100 μM RuBP; allosteric activator; same buffer
T5 construct: first 116 residues (disordered N-terminal tail) removed; pHue His-ubiquitin fusion, tag cleaved with USP2; expressed in E. coli; homohexamer (trimer of dimers)
T5 sequence (Z9Q2N2GQP4 117-583 H472Q): T2 sequence (Z9Q2N2GQP4 117-583) with H356Q

[5] = target: Cyanobium sp. PCC7001 CsoSCA (α-carboxysome carbonic anhydrase), truncated form lacking the 116-residue disordered N-terminal region (Cyanobium sp. PCC7001); test: SEC; size exclusion chromatography of the purified protein in solution (fig. S13); conditions of this run not told in the main text
[6] = target: Cyanobium sp. PCC7001 CsoSCA (α-carboxysome carbonic anhydrase), truncated form lacking the 116-residue disordered N-terminal region (Cyanobium sp. PCC7001); test: crystal structure; CyCsoSCA co-crystallised with RuBP (RuBP:CyCsoSCA 10:1), 7 mg/ml protein, 0.2 M ammonium sulfate, 0.1 M bis-tris pH 6.5, 21% PEG 3350, 15% ethylene glycol; one hexamer in the asymmetric unit, P212121
[7] = target: the molecule itself; test: SEC; size exclusion chromatography of the purified protein in solution (fig. S13); conditions of this run not told in the main text

O=C(O)O [HCO3^−]
membrane inlet mass spectrometry 18O-exchange CA assay (HnCsoSCA): HCO3^− dehydration activity was recorded using MIMS after the addition of CsoSCA variants

O=C(COP(=O)(O)O)[C@H](O)[C@H](O)COP(=O)(O)O [RuBP]
EC50 (CyCsoSCA [1]): 18 ± 2 µM
membrane inlet mass spectrometry 18O-exchange CA assay (CyCsoSCA [2]): high levels of ligand-independent activity and a notable increase with RuBP
membrane inlet mass spectrometry 18O-exchange CA assay (CyCsoSCA [3]): a minor increase in activity upon addition of the ligand
membrane inlet mass spectrometry 18O-exchange CA assay (CyCsoSCA [4]): H472Q mutation (targeted approach) and T477A (random approach) also resulted in a biphasic activity profile

Cyanobium sp. PCC7001 CsoSCA (α-carboxysome carbonic anhydrase), truncated form lacking the 116-residue disordered N-terminal region (enzyme)
stoichiometry N [5]: 6
stoichiometry N [6]: 6

B1: Halothiobacillus neapolitanus CsoSCA (α-carboxysome carbonic anhydrase), truncated form lacking the first 49 residues (enzyme, UniProt O85042 50-514, looked up)
chain: RHPLTDLEANEQLGRCEDSVKNRFDRVIPFLQVVAGIPLGLDYVTRVQELAQSSLGHTLPEELLKDNWISGHNLKGIFGYATAKALTAATEQFSRKIMSEKDDSASAIGFFLDCGFHAVDISPCADGRLKGLLPYILRLPLTAFTYRKAYAGSMFDIEDDLAQWEKNELRRYREGVPNTADQPTRYLKIAVYHFSTSDPTHSGCAAHGSNDRAALEAALTQLMKFREAVENAHCCGASIDILLIGVDTDTDAIRVHIPDSKGFLNPYRYVDNTVTYAQTLHLAPDEARVIIHEAILNANRSDGWAKGNGVASEGMRRFIGQLLINNLSQIDYVVNRHGGRYPPNDIGHAERYISVGDGFDEVQIRNLAYYAHLDTVEENAIDVDVGIKIFTKLNLSRGLPIPIAIHYRYDPNVPGSRERTVVKARRIYNAIKERFSSLDEQNLLQFRLSVQAQDIGSPIEEVASA
notes: CsoSCA carbonic anhydrase of Halothiobacillus neapolitanus, O85042 with the first 49 residues (disordered N-terminal region) removed; codon-optimised for E. coli; also called HnCsoSCA; wild-type HnCsoSCA; source: E. coli NEB T7 Express pLysY, pHue plasmid, purified (HisTrap, USP2 cleavage, second HisTrap, SEC on Superdex 200)
stoichiometry N [7]: 6
